The subject of assay [1] is A2780 ovarian cells. Put plainly: A2780 Ovarian Cell Proliferation Assay in Lipid Reduced Medium, without Palmitate. The assay is classed as cell-based. Particulars: Homo sapiens, A2780; lipid reduced medium, without palmitate, 96 h, MTT; read-out: Proliferation A2780 w/o Palmitate pIC50 (converted). A digest of the protocol:
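A2780 cells were seeded in 10% FCS medium and switched next day to 10% lipid-reduced serum without palmitate. Compounds at 0.01–30 μM were added with 0.2% DMSO, 0.2% fatty-acid-free BSA and 0.25% ethanol final. After 96 h, MTT absorbance at 544 nm was normalized to plate controls, and IC50/pIC50 came from a 4-parameter logistic fit.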

Assay [2] has as its system A2780 ovarian cells. As to the kind of experiment: A2780 Ovarian Cell Proliferation Assay in Lipid Reduced Medium, with Palmitate (control). Particulars: Homo sapiens, A2780; lipid reduced medium, 25 μM palmitate, 96 h, MTT; read-out: Proliferation A2780 with Palmitate pIC50 (converted). The assay is classed as cell-based. In short, it runs like this:
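Read-out was MTT absorbance at 544 nm after 96 h at 37 °C. Cells grown overnight in RPMI1640/10% FCS were moved to 10% lipid-reduced serum with compound plus palmitate (final 25 μM, 0.2% fatty-acid-free BSA, 0.2% DMSO). IC50 came from least-squares curve fitting, expressed as −log(IC50).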

For assay [3], the target named is T1, hFASN enzyme (full length) (Homo sapiens, UniProt P49327).
T1 construct: 10 μL hFASN enzyme (full length, 300 ng, purified in house); made in house
T1 sequence (P49327 whole entry): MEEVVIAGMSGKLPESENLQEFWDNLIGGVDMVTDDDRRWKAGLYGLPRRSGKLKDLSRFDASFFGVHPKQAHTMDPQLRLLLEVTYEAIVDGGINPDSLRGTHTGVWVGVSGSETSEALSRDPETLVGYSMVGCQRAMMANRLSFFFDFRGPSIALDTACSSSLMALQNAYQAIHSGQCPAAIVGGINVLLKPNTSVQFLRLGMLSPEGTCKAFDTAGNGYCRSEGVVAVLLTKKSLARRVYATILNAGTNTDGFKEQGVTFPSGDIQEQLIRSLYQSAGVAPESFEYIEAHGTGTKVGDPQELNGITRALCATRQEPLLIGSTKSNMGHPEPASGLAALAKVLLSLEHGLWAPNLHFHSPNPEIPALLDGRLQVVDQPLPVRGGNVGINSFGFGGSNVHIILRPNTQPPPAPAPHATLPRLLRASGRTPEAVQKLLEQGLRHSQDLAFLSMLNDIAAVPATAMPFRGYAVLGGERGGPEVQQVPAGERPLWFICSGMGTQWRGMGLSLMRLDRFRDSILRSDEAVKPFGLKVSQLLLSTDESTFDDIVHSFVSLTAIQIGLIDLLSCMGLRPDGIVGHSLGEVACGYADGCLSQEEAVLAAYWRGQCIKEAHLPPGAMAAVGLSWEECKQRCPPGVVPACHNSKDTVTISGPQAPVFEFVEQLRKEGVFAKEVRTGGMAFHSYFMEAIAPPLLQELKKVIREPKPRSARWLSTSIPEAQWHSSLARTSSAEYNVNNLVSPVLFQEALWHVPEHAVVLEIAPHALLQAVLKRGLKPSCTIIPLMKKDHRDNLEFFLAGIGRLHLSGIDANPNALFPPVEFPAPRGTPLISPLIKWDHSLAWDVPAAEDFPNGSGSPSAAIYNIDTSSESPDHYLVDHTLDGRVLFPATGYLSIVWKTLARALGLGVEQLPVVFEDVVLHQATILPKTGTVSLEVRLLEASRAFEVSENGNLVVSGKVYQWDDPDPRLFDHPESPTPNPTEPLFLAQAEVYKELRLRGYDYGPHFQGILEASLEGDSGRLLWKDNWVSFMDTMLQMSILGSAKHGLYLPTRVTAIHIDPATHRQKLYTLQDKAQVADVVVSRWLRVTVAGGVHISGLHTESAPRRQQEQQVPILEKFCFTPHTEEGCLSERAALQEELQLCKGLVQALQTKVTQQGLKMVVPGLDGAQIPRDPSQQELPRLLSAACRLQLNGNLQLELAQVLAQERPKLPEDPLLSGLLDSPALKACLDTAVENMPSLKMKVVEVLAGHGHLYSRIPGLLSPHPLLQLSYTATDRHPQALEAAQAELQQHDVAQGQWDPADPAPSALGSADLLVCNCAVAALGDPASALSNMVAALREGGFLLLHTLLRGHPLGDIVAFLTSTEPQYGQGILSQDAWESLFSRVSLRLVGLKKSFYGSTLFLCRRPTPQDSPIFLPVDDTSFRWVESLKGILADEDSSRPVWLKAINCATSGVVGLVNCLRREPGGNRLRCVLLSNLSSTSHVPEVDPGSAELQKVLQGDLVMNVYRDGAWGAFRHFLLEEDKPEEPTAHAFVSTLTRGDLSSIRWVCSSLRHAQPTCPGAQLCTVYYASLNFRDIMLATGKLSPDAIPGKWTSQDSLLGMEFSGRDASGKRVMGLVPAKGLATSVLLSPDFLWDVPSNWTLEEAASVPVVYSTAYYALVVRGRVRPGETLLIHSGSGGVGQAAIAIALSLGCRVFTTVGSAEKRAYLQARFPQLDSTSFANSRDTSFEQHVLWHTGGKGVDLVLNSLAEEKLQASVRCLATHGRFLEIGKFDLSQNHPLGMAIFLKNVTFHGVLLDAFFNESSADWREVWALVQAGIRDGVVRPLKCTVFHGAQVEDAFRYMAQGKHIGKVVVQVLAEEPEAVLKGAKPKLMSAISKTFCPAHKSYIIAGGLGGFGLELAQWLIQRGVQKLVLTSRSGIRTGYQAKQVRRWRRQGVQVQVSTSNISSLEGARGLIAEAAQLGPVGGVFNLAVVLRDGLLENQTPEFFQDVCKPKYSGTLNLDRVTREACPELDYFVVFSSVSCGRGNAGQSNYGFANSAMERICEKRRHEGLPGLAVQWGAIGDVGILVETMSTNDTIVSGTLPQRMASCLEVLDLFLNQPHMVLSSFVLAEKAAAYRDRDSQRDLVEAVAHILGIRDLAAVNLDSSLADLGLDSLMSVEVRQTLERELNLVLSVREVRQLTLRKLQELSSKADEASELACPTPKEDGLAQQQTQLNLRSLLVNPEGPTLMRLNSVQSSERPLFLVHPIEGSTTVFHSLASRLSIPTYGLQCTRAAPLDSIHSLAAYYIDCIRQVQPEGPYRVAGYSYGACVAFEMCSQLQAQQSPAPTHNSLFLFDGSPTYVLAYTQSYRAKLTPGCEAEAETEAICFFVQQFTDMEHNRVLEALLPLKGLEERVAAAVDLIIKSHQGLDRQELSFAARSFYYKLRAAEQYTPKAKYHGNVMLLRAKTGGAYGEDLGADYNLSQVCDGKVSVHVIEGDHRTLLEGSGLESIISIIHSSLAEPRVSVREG
Put plainly: Fatty Acid Synthase (FASN) Inhibition Scintillation Proximity Assay. The assay is classed as biochemical. Particulars: for IC50: mean where tested more than once, ~ = standard error of pIC50 larger than 0.5; for inhibition at 10 µM: read-out: FASN % Effect @1E−05M. A digest of the protocol:
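Eight compound concentrations (0.01–30 μM) tested in pH 7.5 phosphate buffer with DTT; human full-length enzyme converted [3H]-acetyl-CoA plus malonyl-CoA, with NADPH, over 60 min at room temperature. Hydrophobic [3H]-palmitate detected by bead proximity scintillation imaging; control-normalised data fitted for IC50/pIC50.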

Assay [4] concerns the target T2, FASN Keto-reductase Domain (Homo sapiens, UniProt P49327).
T2 construct: 10 μL hFASN enzyme (full length, 300 ng, purified in house) and 360 μM NADPH; made in house
As to the kind of experiment: Fatty Acid Synthase Keto-Reductase Domain (FASN KR) Inhibition. The class given is biochemical. To be noted: mean where tested more than once; read-out: FASN K-R Domain pIC50 (converted). In short, it runs like this: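 Keto-reductase activity followed as NADPH consumption (A340 drop between 0 and 20 min, room temperature) using in-house full-length hFASN, 360 μM NADPH and ethyl acetoacetate substrate (180 mM stock), pH 7.5 phosphate buffer.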

T2 sequence (P49327 whole entry, the tested form may be a part): as the sequence (P49327 whole entry) above

Turning to `COc1ccc(C(=O)N2CCC(c3ccc(-c4cnn(C)c4)cc3)CC2)cc1NC(=O)c1ccc(NC(C)C)nc1` [Compound #251, 6-(isopropylamino)-N-(2-methoxy-5-(4-(4-(1-methyl-1H-pyrazol-4-yl)phenyl)piperidine-1-carbonyl)phenyl)nicotinamide], the IC50 in the assay on A2780 ovarian cells [1] was 41.7 nM; with A2780 ovarian cells [2], 2.4 µM; in assay [3] it was 28.8 nM; in assay [4] it was 115 nM. Further, the inhibition at 10 µM in assay [3] was found to be 112%.
In the case of `Cc1ccc(C(=O)N2CCC(c3ccc(-c4cnn(C)c4)cc3)CC2)cc1NC(=O)c1ccc(F)c(F)c1F` [Compound 120, 2,3,4-trifluoro-N-(2-methyl-5-(4-(4-(1-methyl-1H-pyrazol-4-yl)phenyl)piperidine-1-carbonyl)phenyl)benzamide], the IC50 in the assay with A2780 ovarian cells [1] was 145 nM; in the assay with A2780 ovarian cells [2], approximately 10 µM; in assay [3], 44.7 nM; in assay [4], 97.7 nM. Further, the inhibition at 10 µM in assay [3] was 95%.
Consider `CC(C)Nc1ccc(C(=O)Nc2cc(C(=O)N3CCC(c4ccc(-c5ccnc6ccccc56)cc4)CC3)ccc2Cl)cn1` [Compound 68, N-(2-chloro-5-(4-(4-(quinolin-4-yl)phenyl)piperidine-1-carbonyl)phenyl)-6-(isopropylamino)nicotinamide], for which the IC50 in the assay with A2780 ovarian cells [1] was 195 nM; with A2780 ovarian cells [2], 5.25 µM; in assay [3] it was 31.6 nM; in assay [4] it was 64.6 nM. For the same compound, the inhibition at 10 µM in assay [3] came out at 118%.
The corresponding values for `Cc1ccc(C(=O)N2CCC(c3ccc(-c4cnn(C)c4)cc3)CC2)cc1NC(=O)C1CCN(C(C)C)CC1` [Compound #182, 1-isopropyl-N-(2-methyl-5-(4-(4-(1-methyl-1H-pyrazol-4-yl)phenyl)piperidine-1-carbonyl)phenyl)piperidine-4-carboxamide] are 45.7 nM, more than 10 µM, 27.5 nM, 112 nM and 111%.
The corresponding values for `COc1ccc(C(=O)Nc2cc(C(=O)N3CCC(c4ccc(-c5cnn(C)c5)cc4)CC3)ccc2C)cn1` [Compound 113, 6-methoxy-N-(2-methyl-5-(4-(4-(1-methyl-1H-pyrazol-4-yl)phenyl)piperidine-1-carbonyl)phenyl)nicotinamide] are 67.6 nM, more than 10 µM, 28.8 nM, 47.9 nM and 104%.
For the compound `CCCCN1CCC(C(=O)Nc2cc(C(=O)N3CCC(c4ccc(-c5cnn(C)c5)cc4)CC3)ccc2C)CC1` [Compound 211, 1-butyl-N-(2-methyl-5-(4-(4-(1-methyl-1H-pyrazol-4-yl)phenyl)piperidine-1-carbonyl)phenyl)piperidine-4-carboxamide], the IC50 in the assay with A2780 ovarian cells [1] was 18.6 nM; in the assay on A2780 ovarian cells [2], more than 10 µM; in assay [3], 31.6 nM; in assay [4], 74.1 nM. Besides, the inhibition at 10 µM in assay [3] was 113%.
On to `Cc1ccc(C(=O)N2CC(c3ccc(-c4ccnn4C)cc3)C2)cc1NC(=O)c1ccc(N2CCCCC2)nc1` [Compound 57, N-(2-methyl-5-(3-(4-(1-methyl-1H-pyrazol-5-yl)phenyl)azetidine-1-carbonyl)phenyl)-6-(piperidin-1-yl)nicotinamide], for which the IC50 was 45.7 nM in the assay with A2780 ovarian cells [1], 6.31 µM with A2780 ovarian cells [2], 25.1 nM in assay [3] and 25.7 nM in assay [4]. Also, the inhibition at 10 µM in assay [3] was found to be 106%.
As to `CCC(CC)C(=O)Nc1cc(C(=O)N2CC(c3ccc(-c4cnn(C)c4)cc3)C2)ccc1C` [Compound 153, 2-ethyl-N-(2-methyl-5-(3-(4-(1-methyl-1H-pyrazol-4-yl)phenyl)azetidine-1-carbonyl)phenyl)butanamide], the IC50 was 38 nM with A2780 ovarian cells [1], 4.68 µM with A2780 ovarian cells [2], 30.2 nM in assay [3] and 61.7 nM in assay [4]. Moreover, the inhibition at 10 µM in assay [3] came out at 102%.
For `Cc1cc(C(=O)Nc2cc(C(=O)N3CCC(c4ccc(-c5cnn(C)c5)cc4)CC3)ccc2C)ccn1` [Compound 98, 2-methyl-N-(2-methyl-5-(4-(4-(1-methyl-1H-pyrazol-4-yl)phenyl)piperidine-1-carbonyl)phenyl)isonicotinamide] the same measures were 46.8 nM, 1.2 µM, 30.2 nM, 91.2 nM and 102%.
In the case of `Cc1ccc(C(=O)N2CCC(c3ccc(-c4cnn(C)c4)cc3)CC2)cc1NC(=O)c1ccc(N2CCOCC2)nc1` [Compound #91, N-(2-methyl-5-(4-(4-(1-methyl-1H-pyrazol-4-yl)phenyl)piperidine-1-carbonyl)phenyl)-6-morpholinonicotinamide], the IC50 in the assay with A2780 ovarian cells [1] is 15.8 nM; in the assay on A2780 ovarian cells [2], more than 10 µM; in assay [3], 11.2 nM; in assay [4] it was 25.1 nM. The inhibition at 10 µM in assay [3] was determined as 109%.
For `Cc1ccc(C(=O)N2CC[C@H](c3ccc(-c4ccnn4C)cc3)[C@@H](C)C2)cc1NC(=O)c1ccc(NC(C)C)nc1` (racemic) [Compound #81, (±)-6-(isopropylamino)-N-(2-methyl-5-((3R,4S)-3-methyl-4-(4-(1-methyl-1H-pyrazol-5-yl)phenyl)piperidine-1-carbonyl)phenyl)nicotinamide] the same measures were 110 nM, 4.27 µM, approximately 32.4 nM, 100 nM and 120%.
On to `COc1ccc(C(=O)N2CC(c3ccc(-c4cnn(C)c4)cc3)C2)cc1NC(=O)c1ccc(NC(C)C)nc1` [Compound 202, 6-(isopropylamino)-N-(2-methoxy-5-(3-(4-(1-methyl-1H-pyrazol-4-yl)phenyl)azetidine-1-carbonyl)phenyl)nicotinamide], for which the IC50 in the assay with A2780 ovarian cells [1] was 58.9 nM; in the assay on A2780 ovarian cells [2], more than 10 µM; in assay [3] it was 52.5 nM; in assay [4], 151 nM. In addition, the inhibition at 10 µM in assay [3] was 113%.
Consider `COc1ccc(C(=O)N2CCC(c3ccc(-c4cnn(C)c4)cc3)CC2)cc1NC(=O)c1ccc(Cl)nc1` [Compound 231, 6-chloro-N-(2-methoxy-5-(4-(4-(1-methyl-1H-pyrazol-4-yl)phenyl)piperidine-1-carbonyl)phenyl)nicotinamide], for which the IC50 in the assay on A2780 ovarian cells [1] was 115 nM; in the assay with A2780 ovarian cells [2], more than 10 µM; in assay [3], 33.9 nM; in assay [4], 107 nM. The inhibition at 10 µM in assay [3] is 114%.
The corresponding values for `Cc1ccc(C(=O)N2CC(c3ccc(-c4ccnn4C)cc3)C2)cc1NC(=O)c1ccc(N(C)C2CCN(C)CC2)nc1` [Compound 61, 6-(methyl(1-methylpiperidin-4-yl)amino)-N-(2-methyl-5-(3-(4-(1-methyl-1H-pyrazol-5-yl)phenyl)azetidine-1-carbonyl)phenyl)nicotinamide] are approximately 91.2 nM, 11 µM, 15.5 nM, 69.2 nM and 103%.
For `Cc1ccc(C(=O)N2CCC(c3ccc(-c4cnn(C)c4)cc3)CC2)cc1NC(=O)C1CCN(CC(C)(C)C)CC1` [Compound 178, N-(2-methyl-5-(4-(4-(1-methyl-1H-pyrazol-4-yl)phenyl)piperidine-1-carbonyl)phenyl)-1-neopentylpiperidine-4-carboxamide] the same measures were 26.9 nM, more than 10 µM, 45.7 nM, 58.9 nM and 106%.
In the case of `COc1cc(C(=O)Nc2cc(C(=O)N3CCC(c4ccc(-c5cnn(C)c5)cc4)CC3)ccc2C)cc(Cl)n1` [Compound 103, 2-Chloro-6-methoxy-N-(2-methyl-5-(4-(4-(1-methyl-1H-pyrazol-4-yl)phenyl)piperidine-1-carbonyl)phenyl)isonicotinamide], the IC50 in the assay with A2780 ovarian cells [1] is 141 nM; in the assay with A2780 ovarian cells [2] it was 4.57 µM; in assay [3], 75.9 nM; in assay [4] it was 148 nM. Also, the inhibition at 10 µM in assay [3] was 95%.
For `Cc1ccc(C(=O)N2CCC(c3ccc(-c4ccccc4)cc3)CC2)cc1NC(=O)c1ccc(NC(C)C)nc1` [Compound 225, N-(5-(4-([1,1′-biphenyl]-4-yl)piperidine-1-carbonyl)-2-methylphenyl)-6-(isopropylamino)nicotinamide] the same measures were 589 nM, 1.58 µM, 339 nM, 457 nM and 79%.

The values are drawn from US9562035B2, “Benzamide derivative useful as FASN inhibitors for the treatment of cancer” (Janssen Pharmaceutica NV, priority 2013, dated 2017).
